The values that follow come from patent publication US8008279B2, “Compound—827” (AstraZeneca AB, priority 2007, dated 2011).

In this assay the target is T1, rhuman cathepsin K (Homo sapiens, UniProt P43235).
T1 sequence (P43235 115-329): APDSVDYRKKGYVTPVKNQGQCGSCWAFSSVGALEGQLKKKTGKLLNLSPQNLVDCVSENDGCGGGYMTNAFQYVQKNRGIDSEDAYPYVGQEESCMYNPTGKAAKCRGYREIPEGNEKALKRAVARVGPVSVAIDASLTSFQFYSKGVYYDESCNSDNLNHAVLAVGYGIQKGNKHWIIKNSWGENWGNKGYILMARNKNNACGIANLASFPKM
As to the kind of experiment: Assay for identification of Cathepsin K inhibitors (QFRET, cleavage of Z-Phe-Arg-AMC). Conditions: 0.5 nM rhuman cathepsin K, Z-Phe-Arg-AMC substrate, 30 min pre-incubation, 1 h incubation at room temperature; mean of two separate occasions; read-out: CatK FRET Mean pIC50 (converted). Type of assay: biochemical. The procedure: 0.5 nM [final] rhuman cathepsin K in phosphate buffer was added to a 384-well black microtitre plate containing investigative compounds. The enzyme and compound were pre-incubated at room temperature for 30 minutes before the addition of […] [final] Z-Phe-Arg-AMC synthetic substrate in phosphate buffer. The plates were covered and incubated for 1 h at room temperature, protected from light. Following the incubation the reaction was stopped with 7.5% [final]acetic acid. Relative fluorescence was measured using the Ultra plate reader at a wavelength of 360 nm excitation and 425 nm emission.
Data was corrected for background fluorescence (minimum controls without enzyme).

Each structure is given as a SMILES string.

Take `N#CC1(NC(=O)[C@@H]2CCCC[C@H]2C(=O)N2CCc3[nH]c4ccccc4c3C2)CC1` [Example 4, (1R,2R)-N-(1-cyanocyclopropyl)-2-(1,3,4,5-tetrahydro-2H-pyrido[4,3-b]indol-2-ylcarbonyl)cyclohexanecarboxamide]: the IC50 is 1.3 nM.

With `CN(C)Cc1ccc2[nH]c3c(c2c1)CN(C(=O)[C@@H]1CCCC[C@H]1C(=O)NC1(C#N)CC1)CC3` [Example 15, (1R,2R)-N-(1-cyanocyclopropyl)-2-({8-[(dimethylamino)methyl]-1,3,4,5-tetrahydro-2H-pyrido[4,3-b]indol-2-yl}carbonyl)cyclohexanecarboxamide], the IC50 is 8.91 nM.

For the compound `N#CC1(NC(=O)[C@@H]2CCCC[C@H]2C(=O)N2CCc3[nH]c4cccc(F)c4c3C2)CC1` [Example 9, (1R,2R)-N-(1-cyanocyclopropyl)-2-[(9-fluoro-1,3,4,5-tetrahydro-2H-pyrido[4,3-b]indol-2-yl)carbonyl]cyclohexanecarboxamide], the IC50 is 49.9 nM. As for `CN(C)CCOc1cccc2c3c([nH]c12)CCN(C(=O)[C@@H]1CCCC[C@H]1C(=O)NC1(C#N)CC1)C3` [Example 36, (1R,2R)-N-(1-cyanocyclopropyl)-2-(6-(2-(dimethylamino)ethoxy)-2,3,4,5-tetrahydro-1H-pyrido[4,3-b]indole-2-carbonyl)cyclohexanecarboxamide], the figure is 0.324 nM; as for `N#CC1(NC(=O)[C@@H]2CCCC[C@H]2C(=O)N2Cc3ccccc3C3(CCNCC3)C2)CC1` [Example 18, (1R,2R)-N-(1-cyanocyclopropyl)-2-(1H-spiro[isoquinoline-4,4′-piperidin]-2(3H)-ylcarbonyl)cyclohexanecarboxamide], 7.1 nM.

In the case of `N#CC1(NC(=O)[C@@H]2CCCC[C@H]2C(=O)N2CCc3[nH]c4ncccc4c3C2)CC1` [Example 14], the IC50 is 1.07 nM. As for `CCCOc1cccc2c3c([nH]c12)CCN(C(=O)[C@@H]1CCCC[C@H]1C(=O)NC1(C#N)CC1)C3` [Example 34, (1R,2R)-N-(1-cyanocyclopropyl)-2-[(6-propoxy-1,3,4,5-tetrahydro-2H-pyrido[4,3-b]indol-2-yl)carbonyl]cyclohexanecarboxamide], the figure is 0.486 nM. As for `N#CC1(NC(=O)[C@@H]2CCCC[C@H]2C(=O)N2CCc3[nH]c4c(C(F)(F)F)cccc4c3C2)CC1` [Example 30, (1R,2R)-N-(1-cyanocyclopropyl)-2-{[6-(trifluoromethyl)-1,3,4,5-tetrahydro-2H-pyrido[4,3-b]indol-2-yl]carbonyl}cyclohexanecarboxamide], the figure is 5.5 nM. As for `COc1ccc2[nH]c3c(c2c1)CN(C(=O)[C@@H]1CCCC[C@H]1C(=O)NC1(C#N)CC1)CC3` [Example 8, (1R,2R)-N-(1-cyanocyclopropyl)-2-[(8-methoxy-1,3,4,5-tetrahydro-2H-pyrido[4,3-b]indol-2-yl)carbonyl]cyclohexanecarboxamide], the figure is 40.7 nM; as for `N#CC1(NC(=O)[C@@H]2CCCC[C@H]2C(=O)N2CCc3[nH]c4ccc(Br)cc4c3C2)CC1` [Example 5, (1R,2R)-2-[(8-bromo-1,3,4,5-tetrahydro-2H-pyrido[4,3-b]indol-2-yl)carbonyl]-N-(1-cyanocyclopropyl)cyclohexanecarboxamide], 6.38 nM. For `CC(C)c1ccc2[nH]c3c(c2c1)CN(C(=O)[C@@H]1CCCC[C@H]1C(=O)NC1(C#N)CC1)CC3` [Example 11, (1R,2R)-N-(1-cyanocyclopropyl)-2-[(8-isopropyl-1,3,4,5-tetrahydro-2H-pyrido[4,3-b]indol-2-yl)carbonyl]cyclohexanecarboxamide], the IC50 is 3.67 nM. As for `N#CC1(NC(=O)[C@@H]2CCCC[C@H]2C(=O)N2CCc3[nH]c4c(OC(F)(F)F)cccc4c3C2)CC1` [Example 24, (1R,2R)-N-(1-cyanocyclopropyl)-2-{[6-(trifluoromethoxy)-1,3,4,5-tetrahydro-2H-pyrido[4,3-b]indol-2-yl]carbonyl}cyclohexanecarboxamide], the figure is 1.88 nM; as for `N#CC1(NC(=O)[C@@H]2CCCC[C@H]2C(=O)N2CCc3[nH]c4c(OCCN5CCCCC5)cccc4c3C2)CC1` [Example 39, (1R,2R)-N-(1-cyanocyclopropyl)-2-(6-(2-(piperidin-1-yl)ethoxy)-2,3,4,5-tetrahydro-1H-pyrido[4,3-b]indole-2-carbonyl)cyclohexanecarboxamide], 0.728 nM; as for `N#CC1(NC(=O)[C@@H]2CCCC[C@H]2C(=O)N2CCc3oc4ccccc4c3C2)CC1` [Example 23, (1R,2R)-N-(1-cyanocyclopropyl)-2-[(benzofuro[3,2-c]-1,2,3,4-tetrahydropyridyl)carbonyl]cyclohexanecarboxamide], 2.24 nM. As to `COCCn1c2c(c3ccccc31)CN(C(=O)[C@@H]1CCCC[C@H]1C(=O)NC1(C#N)CC1)CC2` [Example 29, (1R,2R)-N-(1-cyanocyclopropyl)-2-[(5-methoxyethyl-1,3,4,5-tetrahydro-2H-pyrido[4,3-b]indol-2-yl)carbonyl]cyclohexanecarboxamide], the IC50 is 3.89 nM. As for `COc1cccc2c3c([nH]c12)CCN(C(=O)[C@@H]1CCCC[C@H]1C(=O)NC1(C#N)CC1)C3` [Example 17, (1R,2R)-N-(1-cyanocyclopropyl)-2-[(6-methoxy-1,3,4,5-tetrahydro-2H-pyrido[4,3-b]indol-2-yl)carbonyl]cyclohexanecarboxamide], the figure is 0.658 nM. As for `N#Cc1cccc2c3c([nH]c12)CCN(C(=O)[C@@H]1CCCC[C@H]1C(=O)NC1(C#N)CC1)C3` [Example 20, (1R,2R)-N-(1-cyanocyclopropyl)-2-[(6-cyano-1,3,4,5-tetrahydro-2H-pyrido[4,3-b]indol-2-yl)carbonyl]cyclohexanecarboxamide], the figure is 1.91 nM. As for `N#CC1(NC(=O)[C@@H]2CCCC[C@H]2C(=O)N2CCc3oc4ncccc4c3C2)CC1` [Example 41, (1R,2R)-2-(7,8-Dihydro-5H-furo[2,3-b:4,5-c′]dipyridine-6-carbonyl)-cyclohexanecarboxylic acid (1-cyano-cyclopropyl)-amide], the figure is 6.44 nM; as for `N#CC1(NC(=O)[C@@H]2CCCC[C@H]2C(=O)N2CCc3[nH]c4c(Cl)cccc4c3C2)CC1` [Example 19, (1R,2R)-2-[(6-chloro-1,3,4,5-tetrahydro-2H-pyrido[4,3-b]indol-2-yl)carbonyl]-N-(1-cyanocyclopropyl)cyclohexanecarboxamide], 1.78 nM; as for `N#CC1(NC(=O)[C@@H]2CCCC[C@H]2C(=O)N2CCc3[nH]c4c(Br)cccc4c3C2)CC1` [Example 13, (1R,2R)-2-[(6-bromo-1,3,4,5-tetrahydro-2H-pyrido[4,3-b]indol-2-yl)carbonyl]-N-(1-cyanocyclopropyl)cyclohexanecarboxamide], 2.24 nM. On to `N#CC1(NC(=O)[C@@H]2CCCC[C@H]2C(=O)N2CCc3[nH]c4ccc(C(F)(F)F)cc4c3C2)CC1` [Example 7, (1R,2R)-N-(1-cyanocyclopropyl)-2-{[8-(trifluoromethyl)-1,3,4,5-tetrahydro-2H-pyrido[4,3-b]indol-2-yl]carbonyl}cyclohexanecarboxamide], for which the IC50 was 42.1 nM. As to `N#CC1(NC(=O)[C@@H]2CCCC[C@H]2C(=O)N2CCc3[nH]c4cc(F)ccc4c3C2)CC1` [Example 10, (1R,2R)-N-(1-cyanocyclopropyl)-2-[(7-fluoro-1,3,4,5-tetrahydro-2H-pyrido[4,3-b]indol-2-yl)carbonyl]cyclohexanecarboxamide], the IC50 was 10.2 nM. As for `CS(=O)(=O)c1ccc2[nH]c3c(c2c1)CN(C(=O)[C@@H]1CCCC[C@H]1C(=O)NC1(C#N)CC1)CC3` [Example 16, (1R,2R)-N-(1-cyanocyclopropyl)-2-{[8-(methylsulfonyl)-1,3,4,5-tetrahydro-2H-pyrido[4,3-b]indol-2-yl]carbonyl}cyclohexanecarboxamide], the figure is 78.5 nM; as for `N#CC1(NC(=O)[C@@H]2CCCC[C@H]2C(=O)N2CCc3[nH]c4c(OCCN5CCOCC5)cccc4c3C2)CC1` [Example 37, (1R,2R)-N-(1-cyanocyclopropyl)-2-(6-(2-morpholinoethoxy)-2,3,4,5-tetrahydro-1H-pyrido[4,3-b]indole-2-carbonyl)cyclohexanecarboxamide], 3.2 nM; as for `N#CC1(NC(=O)[C@@H]2CCCC[C@H]2C(=O)N2CCc3[nH]c4c(OCc5ccccc5)cccc4c3C2)CC1` [Example 32, (1R,2R)-2-{[6-(benzyloxy)-1,3,4,5-tetrahydro-2H-pyrido[4,3-b]indol-2-yl]carbonyl}-N-(1-cyanocyclopropyl)cyclohexanecarboxamide], 1 nM. As for `COC(=O)Cn1c2c(c3ccccc31)CN(C(=O)[C@@H]1CCCC[C@H]1C(=O)NC1(C#N)CC1)CC2` [Example 26, (1R,2R)-N-(1-cyanocyclopropyl)-2-[(5-methoxycarbonylmethyl-1,3,4,5-tetrahydro-2H-pyrido[4,3-b]indol-2-yl)carbonyl]cyclohexanecarboxamide], the figure is 2.85 nM; as for `CSc1cccc2c3c([nH]c12)CCN(C(=O)[C@@H]1CCCC[C@H]1C(=O)NC1(C#N)CC1)C3` [Example 22, (1R,2R)-N-(1-cyanocyclopropyl)-2-{[6-(methylthio)-1,3,4,5-tetrahydro-2H-pyrido[4,3-b]indol-2-yl]carbonyl}cyclohexanecarboxamide], 4.32 nM.
